Reference: patent US6525001B1, “Substituted pyrimidine and pyridine herbicides” (Mid-American Commercialization Corporation, priority 1997, dated 2003)

Key:
Assay type in all cases: in vivo
[1] = tested on: sourgrass (Trichachne insularis); test: Test E pre-/postemergence/post directed; set-up: key: 0 is no effect; 100 is complete control
Procedure, shortened: (§1)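 Injury scored visually on a 0–100 scale (100 = complete control) 13 to 21 days after treatment. Test chemicals, formulated with surfactant in non-phytotoxic solvent, were applied to soil within one day of planting, to plants at two to four leaves (three to twenty cm), or as directed spray at plant base.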

[2] = tested on: goosegrass (Eleusine indica); test: Test E pre-/postemergence/post directed; set-up: key: 0 is no effect; 100 is complete control
Procedure, shortened: as §1

[3] = tested on: dallisgrass (Paspalum dilatatum); test: Test E pre-/postemergence/post directed; set-up: key: 0 is no effect; 100 is complete control
Procedure, shortened: as §1

[4] = tested on: bermudagrass (Cynodon dactylon); test: Test E pre-/postemergence/post directed; set-up: key: 0 is no effect; 100 is complete control; settings: PREEMERGENCE
Procedure, shortened: as §1

[5] = tested on: surinam grass (Brachiaria decumbens); test: Test E pre-/postemergence/post directed; set-up: key: 0 is no effect; 100 is complete control; settings: PREEMERGENCE, Rate 250 g/ha
Procedure, shortened: as §1

[6] = tested on: common ragweed (Ambrosia elatior); test: Test E pre-/postemergence/post directed; set-up: key: 0 is no effect; 100 is complete control; settings: PREEMERGENCE
Procedure, shortened: as §1

[7] = tested on: tall mallow (Malva sylvestris); test: Test E pre-/postemergence/post directed; set-up: key: 0 is no effect; 100 is complete control; settings: PREEMERGENCE
Procedure, shortened: as §1

[8] = tested on: large crabgrass (Digitaria sanguinalis); test: Test E pre-/postemergence/post directed; set-up: key: 0 is no effect; 100 is complete control; settings: PREEMERGENCE
Procedure, shortened: as §1

[9] = tested on: common groundsel (Senecio vulgaris); test: Test E pre-/postemergence/post directed; set-up: key: 0 is no effect; 100 is complete control; settings: PREEMERGENCE
Procedure, shortened: as §1

[10] = tested on: common purslane (Portulaca oleracea); test: Test E pre-/postemergence/post directed; set-up: key: 0 is no effect; 100 is complete control
Procedure, shortened: as §1

[11] = tested on: guineagrass (Panicum maximum); test: Test E pre-/postemergence/post directed; set-up: key: 0 is no effect; 100 is complete control
Procedure, shortened: as §1

[12] = tested on: crabgrass (Digitaria spp.); test: Test A pre-/postemergence; set-up: key: 0 is no effect; 10 is complete control; settings: 0 to 10 scale
Protocol: (§2) Seeds of barnyardgrass (Echinochloa crus-galli), crabgrass (Digitaria spp.), morningglory (Ipomoea spp.), and velvetleaf (Abutilon theophrasti) were planted into a sandy loam soil and treated preemergence by soil drench with test chemicals formulated in a non-phytotoxic solvent mixture which includes a surfactant. At the same time, these crop and weed species were also treated postemergence sprayed to runoff, with test chemicals formulated in the same manner. Plants ranged in height from two to eighteen cm and were in the one to two leaf stage for the postemergence treatment. Treated plants and untreated controls were maintained in a greenhouse for approximately eleven days, after which all treated plants were compared to untreated controls and visually evaluated for injury. Plant response ratings, summarized in Table A, are based on a 0 to 10 scale where 0 is no effect and 10 is complete control. A dash (−) response means no test results.

[13] = tested on: velvetleaf (Abutilon theophrasti); test: Test A pre-/postemergence; set-up: key: 0 is no effect; 10 is complete control; settings: 0 to 10 scale
Protocol: as §2

[14] = tested on: morningglory (Ipomoea spp.); test: Test A pre-/postemergence; set-up: key: 0 is no effect; 10 is complete control; settings: 0 to 10 scale
Protocol: as §2

[15] = tested on: barnyardgrass (Echinochloa crus-galli); test: Test A pre-/postemergence; set-up: key: 0 is no effect; 10 is complete control; settings: 0 to 10 scale
Protocol: as §2

[16] = tested on: ladysthumb smartweed (Polygonum persicaria); test: Test C; settings: PREEMERGENCE
[17] = PRE SOIL DRENCH, Rate 2000 g/ha
[18] = postemergence SPRAYED TO RUNOFF, Rate 1000 g/ha

**Q.** With `Cc1cnc(-c2ccc(C(F)(F)F)cc2)nc1Cc1cccc(C(F)(F)F)c1` [Example 1, 5-methyl-2-[4-(trifluoromethyl)phenyl]-4-[[3-(trifluoromethyl)phenyl]methyl]pyrimidine] as the compound, how does the “Plant response rating, Sourgrass” value ([1]; POSTEMERGENCE, Rate 250 g/ha) read?
**A.** 30

**Q.** What about the “Plant response rating, Sourgrass” value ([1]; PREEMERGENCE, Rate 32 g/ha) of the same compound?
**A.** 100

**Q.** And the “Plant response rating, Sourgrass” value ([1]; PREEMERGENCE, Rate 64 g/ha)?
**A.** 100

**Q.** What about the “Plant response rating, Sourgrass” value ([1]; PREEMERGENCE, Rate 125 g/ha) of the same compound?
**A.** 100

**Q.** And the “Plant response rating, Sourgrass” value ([1]; PREEMERGENCE, Rate 250 g/ha)?
**A.** 100

**Q.** What about the “Plant response rating, Goosegrass” value ([2]; POSTEMERGENCE, Rate 250 g/ha) of the same compound?
**A.** 70

**Q.** What about the “Plant response rating, Goosegrass” value ([2]; PREEMERGENCE, Rate 32 g/ha) of the same compound?
**A.** 100

**Q.** What about the “Plant response rating, Goosegrass” value ([2]; PREEMERGENCE, Rate 64 g/ha) of the same compound?
**A.** 100

**Q.** And the “Plant response rating, Goosegrass” value ([2]; PREEMERGENCE, Rate 125 g/ha)?
**A.** 100

**Q.** What about the “Plant response rating, Goosegrass” value ([2]; PREEMERGENCE, Rate 250 g/ha) of the same compound?
**A.** 100

**Q.** And the “Plant response rating, Dallisgrass” value ([3]; POSTEMERGENCE, Rate 250 g/ha)?
**A.** 90

**Q.** And the “Plant response rating, Dallisgrass” value ([3]; PREEMERGENCE, Rate 32 g/ha)?
**A.** 98

**Q.** And the “Plant response rating, Dallisgrass” value ([3]; PREEMERGENCE, Rate 64 g/ha)?
**A.** 100

**Q.** And the “Plant response rating, Dallisgrass” value ([3]; PREEMERGENCE, Rate 125 g/ha)?
**A.** 100

**Q.** And the “Plant response rating, Dallisgrass” value ([3]; PREEMERGENCE, Rate 250 g/ha)?
**A.** 100

**Q.** And the “Plant response rating, Bermudagrass” value ([4]; Rate 32 g/ha)?
**A.** 100

**Q.** And the “Plant response rating, Bermudagrass” value ([4]; Rate 64 g/ha)?
**A.** 100

**Q.** What about the “Plant response rating, Bermudagrass” value ([4]; Rate 125 g/ha) of the same compound?
**A.** 100

**Q.** What about the “Plant response rating, Bermudagrass” value ([4]; Rate 250 g/ha) of the same compound?
**A.** 100

**Q.** And the “Plant response rating, Surinam grass” value [5]?
**A.** 100

**Q.** What about the “Plant response rating, Com. ragweed” value ([6]; Rate 64 g/ha) of the same compound?
**A.** 100

**Q.** And the “Plant response rating, Com. ragweed” value ([6]; Rate 125 g/ha)?
**A.** 100

**Q.** And the “Plant response rating, Com. ragweed” value ([6]; Rate 250 g/ha)?
**A.** 100

**Q.** What about the “Plant response rating, Tall Mallow” value ([7]; Rate 32 g/ha) of the same compound?
**A.** 100

**Q.** What about the “Plant response rating, Tall Mallow” value ([7]; Rate 64 g/ha) of the same compound?
**A.** 100

**Q.** What about the “Plant response rating, Tall Mallow” value ([7]; Rate 125 g/ha) of the same compound?
**A.** 100

**Q.** And the “Plant response rating, Tall Mallow” value ([7]; Rate 250 g/ha)?
**A.** 100

**Q.** And the “Plant response rating, Large crabgrass” value ([8]; Rate 32 g/ha)?
**A.** 100

**Q.** What about the “Plant response rating, Large crabgrass” value ([8]; Rate 64 g/ha) of the same compound?
**A.** 100

**Q.** What about the “Plant response rating, Large crabgrass” value ([8]; Rate 125 g/ha) of the same compound?
**A.** 100

**Q.** And the “Plant response rating, Large crabgrass” value ([8]; Rate 250 g/ha)?
**A.** 100

**Q.** And the “Plant response rating, Com. groundsel” value ([9]; Rate 64 g/ha)?
**A.** 100

**Q.** What about the “Plant response rating, Com. groundsel” value ([9]; Rate 125 g/ha) of the same compound?
**A.** 100

**Q.** What about the “Plant response rating, Com. groundsel” value ([9]; Rate 250 g/ha) of the same compound?
**A.** 100

**Q.** What about the “Plant response rating, Com. purslane” value ([10]; POSTEMERGENCE, Rate 250 g/ha) of the same compound?
**A.** 40

**Q.** What about the “Plant response rating, Com. purslane” value ([10]; PREEMERGENCE, Rate 32 g/ha) of the same compound?
**A.** 98

**Q.** What about the “Plant response rating, Com. purslane” value ([10]; PREEMERGENCE, Rate 64 g/ha) of the same compound?
**A.** 100

**Q.** And the “Plant response rating, Com. purslane” value ([10]; PREEMERGENCE, Rate 125 g/ha)?
**A.** 100

**Q.** And the “Plant response rating, Com. purslane” value ([10]; PREEMERGENCE, Rate 250 g/ha)?
**A.** 100

**Q.** And the “Plant response rating, Guineagrass” value ([11]; POSTEMERGENCE, Rate 250 g/ha)?
**A.** 70

**Q.** What about the “Plant response rating, Guineagrass” value ([11]; PREEMERGENCE, Rate 32 g/ha) of the same compound?
**A.** 90

**Q.** And the “Plant response rating, Guineagrass” value ([11]; PREEMERGENCE, Rate 64 g/ha)?
**A.** 100

**Q.** What about the “Plant response rating, Guineagrass” value ([11]; PREEMERGENCE, Rate 125 g/ha) of the same compound?
**A.** 100

**Q.** What about the “Plant response rating, Guineagrass” value ([11]; PREEMERGENCE, Rate 250 g/ha) of the same compound?
**A.** 100

**Q.** What about the “Plant response rating, Crabgrass” value [12, 17] of the same compound?
**A.** 10

**Q.** What about the “Plant response rating, Crabgrass” value [12, 18] of the same compound?
**A.** 9

**Q.** And the “Plant response rating, Velvetleaf” value [13, 17]?
**A.** 9

**Q.** And the “Plant response rating, Velvetleaf” value [13, 18]?
**A.** 9

**Q.** What about the “Plant response rating, Morningglory” value [14, 17] of the same compound?
**A.** 8

**Q.** And the “Plant response rating, Morningglory” value [14, 18]?
**A.** 9

**Q.** And the “Plant response rating, Barnyardgrass” value [15, 17]?
**A.** 10

**Q.** What about the “Plant response rating, Barnyardgrass” value [15, 18] of the same compound?
**A.** 9

**Q.** And the “Plant response rating, Ladysthumb” value ([16]; Rate 35 g/ha)?
**A.** 25

**Q.** What about the “Plant response rating, Ladysthumb” value ([16]; Rate 70 g/ha) of the same compound?
**A.** 90

**Q.** What about the “Plant response rating, Ladysthumb” value ([16]; Rate 140 g/ha) of the same compound?
**A.** 95
